Experimental data from patent publication US20260207626A1, “SYNTHETIC TRITERPENOIDS AND COMPOSITIONS THEREOF IN WEIGHT MANAGEMENT, SKELETAL MUSCLE FUNCTION, AND APPETITE SUPPRESSION” (The Board of Regents of the University of Texas System, priority 2022, published 2026).
“Also recorded” adds a separate entry of the source.

Legend:
[1] = tested on: L6-GLUT4myc myotubes; experiment: Sulforhodamine B (SRB) cell viability assay; assay type: cell-based, rat; conditions: 500 nM CDDO-EA, 24 hours
Description: Sulforhodamine B (SRB) cell viability assay: L6-GLUT4myc myoblasts (4000 cells/well) were seeded on a 96-well plate and differentiated into myotubes with differentiation medium for 7 days. Myotubes were then treated with doubling concentrations of CDDO-EA for 6 or 24 h. After treatment, myotubes were fixed in 10% cold trichloroacetic acid (TCA) (Sigma Aldrich), for 1 h in 4° C., followed by three washings with water. The plate was then dried, and the cells were dyed with 100 μL/well of 0.057% SRB (Sigma Aldrich) in 1% acetic acid for 30 min in room temperature. The plate was washed with 1% acetic acid five times, dried, and 200 μL/well of 10 mM unbuffered tris-base solution were added to dissolve the bound SRB. The plate was shaken for 1 h and then read on SpectraMax at 560 nm. Results were normalized to values for non-treated cells.

[2] = Food intake in mice fed HFD with or without CDDO-EA, LFD or HFD pair-fed; assay type: in vivo, C57BL/6J mice; conditions: HFD + CDDO-EA (0.04%) vs ad libitum HFD
Description: C57BL/6J mice were fed a HFD with or without incorporation of CDDO-EA (diet containing 0.04% CDDO-EA) or LFD or HFD pair-fed for 6 weeks (n=5). Food intake data points in week 1 are not recorded when mice were in the Prometheion. Data are represented as mean±SEM (Two-way Repeated Measures ANOVA). *p<0.05; **p<0.01 vs. HFD pair-fed; ? p<0.01 vs. HFD+CDDO-EA; ##p<0.01 vs. LFD ad lib.
C57BL/6J mice (6-8 weeks old, male, strain #000664, The Jackson Laboratory) were divided into four (4) groups (i)-(iv)): (i) ad libitum Low fat caloric content (LFD-10% of total calories from fat caloric content, #TD.08806, Envigo), (ii) ad libitum HFD (60% of total calories from fat caloric content, #TD.06414, Envigo), (iii) HFD+CDDO-EA (diet containing 0.04% CDDO-EA), and (iv) HFD pair-fed to food intake of mice fed HFD+CDDO-EA. The study was for 6 weeks (42 days) (performed at Vanderbilt Metabolic Mouse Phenotyping Center (VMMPC)). Mice were singly housed in a Promethion Metabolic Analyzer and were monitored continuously for 7 days to assess feeding and EE.

[3] = tested on: p65 NF-κB; experiment: NF-κB p65 nuclear translocation (immunofluorescence and subcellular fractionation) in L6-GLUT4myc myotubes; assay type: cell-based, rat
Description: NF-κB is bound to IκB-α in the cytoplasm. Upon activation of the IKK/NF-κB/IκB pathway, IκB is degraded, freeing NF-κB to translocate into the nucleus and activate the transcription of pro-inflammatory mediators. To visualize the localization of NF-κB, immunofluorescence and confocal microscopy studies were performed in L6-GLUT4myc myo-tubes pre-treated with CDDO-EA for 1 h and then exposed to LPS for 1 h. The untreated muscle cells show a basal-level expression of p65 NF-κB in the nucleus (FIG. 14A).
For subcellular fractionation, differentiated L6-GLUT4myc myotubes were pre-treated with CDDO-EA 500 nM for 1 h follow by LPS 100 ng/ml (E. coli O111: B4, Sigma Aldrich) treatment for 1 h, and the nuclear and cytosolic fractions were isolated using the Nuclear Extraction Kit (Panomics) according to the manufacturer's instructions. The extracted fractions were then analyzed by Western blotting as described.
Immunofluorescence microscopy: L6-GLUT4myc myoblasts (4×10^4 cells/ml, 0.2 ml/well) were plated onto Nunc Lab-TekII 8-chamber slides (Thermo Fisher Scientific) and differentiated for 7 days. Myotubes were pre-treated with CDDO-EA 500 nM for 1 h followed by LPS 100 ng/ml (E. coli O111: B4, Sigma Aldrich) treatment for 1 h. […]

In the case of `CCNC(=O)[C@]12CCC(C)(C)C[C@H]1C1C(=O)C=C3[C@@]4(C)C=C(C#N)C(=O)C(C)(C)[C@@H]4CC[C@@]3(C)[C@]1(C)CC2` (stereo partly drawn) [CDDO-EA, (4aS,6aR,6bS,8aR,12aS,14bS)-11-cyano-N-ethyl-2,2,6a,6b,9,9,12a-heptamethyl-10,14-dioxo-1,3,4,5,6,6a,6b, 7,8,8a,9,10,12a, 14,14a, 14b-hexadecahydropicene-4a (2H)-carboxamide], the cell viability [1] was 62%, the food intake [2] was “prevented an increase in food intake; also recorded: decreases food intake” and the “LPS-induced p65 NF-κB nuclear translocation” value ([3]; 500 nM CDDO-EA 1 hr then 100 ng/ml LPS 1 hr) was “reduces LPS-induced p65 NF-κB nuclear staining; also recorded: decreased both cytoplasmic and nuclear localization of p65 NF-κB; also recorded: prevented NF-κB translocation to the nucleus”. For the same compound, the NF-κB activation ([3]; CDDO-EA alone, no LPS) was “had no effect on NF-κB activation”.
